Measurements from ChEMBL document CHEMBL1123525, “Synthesis and biological activities of 5-deaza analogues of aminopterin and folic acid” (1986).

Columns and labels:
P388 = experiment: Compound was evaluated for inhibitory activity against P-388 leukemic cells in vitro; Range 1.8x10E-8 to 2x10E-7 M; format: functional; settings: Mus musculus, read-out: ID50 (the source's name)
L1210 = experiment: Compound was evaluated for inhibitory activity against L-1210 leukemic cells in vitro; Range 1.8x10E-8 to 2x10E-7 M; format: functional; settings: Mus musculus, read-out: ID50 (the source's name)

IC50 (P388): 200 nM
IC50 (L1210): 200 nM
SMILES: Cc1c(CNc2ccc(C(=O)NC(CCC(=O)O)C(=O)O)cc2)cnc2nc(N)nc(N)c12 (configuration not stated)
